From the supplement of paper PMC10307832 come the findings set out here.

What all share (assay): relative viability (nuclei count vs DMSO), 5 days (fraction); higher = more cells survive
Compound in the assay “Cediranib + Vorinostat”: COc1cc2c(Oc3ccc4[nH]c(C)cc4c3F)ncnc2cc1OCCCN1CCCC1 [Cediranib] + O=C(CCCCCCC(=O)Nc1ccccc1)NO [Vorinostat] (partner 1 µM)
An outline of the steps: (§1)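 Cells from lung cancer lines were seeded into 1536-well plates and, one day later, dosed by pin tool. Treatments were either a single drug or a fixed dose of an anchor drug with five library-drug doses (not always all listed) in √10 steps. After 5 days, nuclei were stained in a one-step fixation (final 0.05% Triton X-100, 1% formaldehyde, 1 ug/ml Hoechst) and counted on 4× images, and relative viability is the treated-to-vehicle nuclei ratio, as the median of duplicate plates.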

Compound in assay [1]: O=C(C[C@H]1NCCC[C@@H]1O)Cn1cnc2cc(Br)c(Cl)cc2c1=O (racemic) [Halofuginone] + CCNC(=O)c1noc(-c2cc(C(C)C)c(O)cc2O)c1-c1ccc(CN2CCOCC2)cc1 [Luminespib] (partner 0.01 µM)
An outline of the steps: as §1

Compound in the assay “Halofuginone + Olaparib”: O=C(C[C@H]1NCCC[C@@H]1O)Cn1cnc2cc(Br)c(Cl)cc2c1=O (racemic) [Halofuginone] + O=C(c1cc(Cc2n[nH]c(=O)c3ccccc23)ccc1F)N1CCN(C(=O)C2CC2)CC1 [Olaparib] (partner 8 µM)
In outline:
as §1

Compound in the assay “Cediranib + Phenformin”: COc1cc2c(Oc3ccc4[nH]c(C)cc4c3F)ncnc2cc1OCCCN1CCCC1 [Cediranib] + N=C(N)NC(=N)NCCc1ccccc1 [Phenformin] (partner 250 µM)
An outline of the steps: as §1

On to UMC-11, for which the relative viability with Cediranib + Vorinostat (first compound 0.04 µM) was found to be 0.396; in the assay with Cediranib + Vorinostat (first compound 0.1265 µM), 0.256; with Cediranib + Vorinostat (first compound 0.4 µM), 0.345; with Cediranib + Vorinostat (first compound 1.265 µM), 0.392; with Cediranib + Vorinostat (first compound 4 µM), 0.412; in assay [1] (first compound 0.001 µM), 1.08. Moreover, the relative viability in assay [1] (first compound 0.003162 µM) was 1.05; in assay [1] (first compound 0.01 µM) it was 1.02; in assay [1] (first compound 0.03162 µM) it was 0.703; in assay [1] (first compound 0.1 µM), 0.412; in the assay with Halofuginone + Olaparib (first compound 0.001 µM), 0.426; with Halofuginone + Olaparib (first compound 0.003162 µM), 0.381. Besides, the relative viability in the assay with Halofuginone + Olaparib (first compound 0.01 µM) worked out at 0.566; in the assay with Halofuginone + Olaparib (first compound 0.03162 µM), 0.471; with Halofuginone + Olaparib (first compound 0.1 µM), 0.226; with Cediranib + Phenformin (first compound 0.04 µM), 0.342; in the assay with Cediranib + Phenformin (first compound 0.4 µM), 0.346; with Cediranib + Phenformin (first compound 4 µM) it was 0.3.
